Patent US8017612B2, “Piperazine compound and use thereof as a HCV polymerase inhibitor” (priority 2006, dated 2011)

What was measured:
[1] = molecular target: T1, HCV polymerase (NS5B) type 1b (Hepatitis C virus genotype 1b, UniProt P26663); assay: Assay of enzyme (HCV polymerase) inhibitory activity, type 1b enzyme; assay type: biochemical, HCV BK strain (type 1b); conditions: HCV polymerase inhibitory activity (IC50), 1b, type 1b enzyme 0.5 μg/ml, 25° C., 60 min
T1 construct: a region encoding NS5B (J Virol 1991 March, 65(3), 1105-13, 544 amino acids after deletion of 47 amino acids on the C-terminal); 6xHis (C); made in house; host or cells: Escherichia coli
Source text: (§1) The evaluation of the HCV polymerase inhibitory activity of the compound of the present invention is explained in the following. This polymerase is an enzyme coded for by the non-structural protein region called NS5B on the genome RNA of HCV.
(§2) i) Preparation of Enzyme (HCV Polymerase)
(§3) Using, as a template, a cDNA clone corresponding to the full length genome RNA of HCV BK strain (type 1b) obtained from the blood of a patient with hepatitis C, a region encoding NS5B (J Virol 1991 March, 65(3), 1105-13, 544 amino acids after deletion of 47 amino acids on the C-terminal) was amplified by PCR. The objective gene was prepared by adding a 6 His tag {base pair encoding 6 continuous histidine (His)} to the 3′ end thereof and transformed to Escherichia coli. The Escherichia coli capable of producing the objective protein was cultured. The obtained cells were suspended in a buffer solution and crushed in a microfluidizer. The supernatant was obtained by centrifugation and applied to various column chromatographys {mono-S, Sephacryl S-200 (Pharmacia)}, inclusive of metal chelate chromatography, to give a standard enzyme product.
(§4) ii) Synthesis of Substrate RNA
(§5) Using a synthetic primer designed based on the sequence of HCV genomic 3′ untranslated region, a DNA fragment (148 bp) containing polyU and 3′X sequence was entirely synthesized and cloned into plasmid pBluescript SK II(+) (Stratagene). The cDNA encoding full length NS5B, which was prepared in i) above, was digested with restriction enzyme KpnI to give a cDNA fragment containing the nucleotide sequence of from the restriction enzyme cleavage site to the termination codon. This cDNA fragment was inserted into the upstream of 3′ untranslated region of the DNA in pBluescript SK II(+) and ligated. The about 450 bp inserted DNA sequence was used as a template in the preparation of substrate RNA. This plasmid was cleaved immediately after the 3′X sequence, linearized and purified by phenol-chloroform treatment and ethanol precipitation to give DNA.
(§6) RNA was synthesized (37° C., 4 hr) by run-off method using this purified DNA as a template, a promoter of pBluescript SK II(+), MEGAscript RNA synthesis kit (Ambion) and T7 RNA polymerase. DNase I was added and the mixture was incubated for 1 hr. The template DNA was removed by decomposition to give a crude RNA product. This crude product was treated with phenol-chloroform and purified by ethanol precipitation to give the objective substrate RNA.
(§7) This RNA was applied to urea denaturation polyacrylamide gel electrophoresis to confirm the quality thereof and preserved at −80° C.
(§8) iii) Assay of Enzyme (HCV Polymerase) inhibitory activity
(§9) A test substance (compound of the present invention) and a reaction mixture (30 μl) having the following composition were reacted at 25° C. for 60 min.
(§10) 10% Trichloroacetic acid and 1% sodium pyrophosphate solution (150 μl) at 4° C. was added to this reaction mixture to stop the reaction. The reaction mixture was left standing at 4° C. for 15 min to insolubilize RNA. This RNA was trapped on a glass filter (PerkinElmer, GF/B) upon filtration by suction. This filter was washed with a solution containing 1% trichloroacetic acid and 0.1% sodium pyrophosphate, washed with 90% ethanol and dried. A liquid scintillation cocktail (PerkinElmer) was added and the radioactivity of RNA synthesized by the enzyme reaction was measured on a liquid scintillation counter.
The HCV polymerase inhibitory activity (IC50) of the compound of the present invention was calculated from the values of radioactivity of the enzyme reaction with and without the test substance.
Reaction mixture: HCV polymerase (type 1b 0.5 μg/ml or type 1a 1.5 μg/m) obtained in i), substrate RNA (5 μg/ml) obtained in ii), ATP (50 μM), GTP (50 μM), CTP (50 μM), UTP (2 μM), [5,6-^3H]UTP (30-60 Ci/mmol (Amersham Biosciences), 1 μCi) 20 mM Tris-HCl (pH 7.5), EDTA (1 mM), MgCl2 (5 mM), NaCl (50 mM), DTT (1 mM), BSA (0.01%)

[2] = molecular target: T2, HCV polymerase (NS5B) type 1a (Hepatitis C virus genotype 1a, UniProt P26664); assay: Assay of enzyme (HCV polymerase) inhibitory activity, type 1a enzyme; assay type: biochemical, HCV type 1a (cloned from the blood of patients); conditions: HCV polymerase inhibitory activity (IC50), 1a, type 1a enzyme 1.5 μg/ml, 25° C., 60 min
T2 construct: made in house; host or cells: Escherichia coli (by the 'similar method' of the 1b enzyme)
Source text: as §1, §2, §3
Standard enzyme products for type 1a (cloned from the blood of patients) were also obtained by a similar method.
as §4, §5, §6, §7, §8, §9, §10
The HCV polymerase inhibitory activity (IC50) of the compound of the present invention was calculated from the values of radioactivity of the enzyme reaction with and without the test substance. […]

Row | Compound | IC50 [1] | IC50 [2]
1 | CC(=O)N1CCN(S(=O)(=O)c2ccc(Cl)cc2)C(C(=O)NCc2ccc(C(F)(F)F)cc2)C1 (stereo not drawn) [Example 20, 4-acetyl-1-(4-chloro-benzenesulfonyl)-piperazine-2-carboxylic acid 4-trifluoromethyl-benzylamide] | > 1000 nM | > 1000 nM
2 | CC(=O)N1CCN(S(=O)(=O)c2ccccc2Cl)C(C(=O)NCc2ccc(C(F)(F)F)cc2)C1 (stereo not drawn) [Example 21, 4-acetyl-1-(2-chloro-benzenesulfonyl)-piperazine-2-carboxylic acid 4-trifluoromethyl-benzylamide] | > 1000 nM | > 1000 nM
3 | CC(=O)N1CCN(S(=O)(=O)c2ccc(Br)cc2)C(C(=O)NCc2ccc(C(F)(F)F)cc2)C1 (stereo not drawn) [Example 22, 4-acetyl-1-(4-bromo-benzenesulfonyl)-piperazine-2-carboxylic acid 4-trifluoromethyl-benzylamide] | > 1000 nM | > 1000 nM
4 | CC(=O)N1CCN(S(=O)(=O)c2ccc(Br)s2)C(C(=O)NCc2ccc(C(F)(F)F)cc2)C1 (stereo not drawn) [Example 23, 4-acetyl-1-(5-bromo-thiophene-2-sulfonyl)-piperazine-2-carboxylic acid 4-trifluoromethyl-benzylamide] | > 1000 nM | > 1000 nM
5 | CC(=O)N1CCN(S(=O)(=O)c2ccccc2)C(C(=O)NCc2ccc(C(F)(F)F)cc2)C1 (stereo not drawn) [Example 24, 4-acetyl-1-benzenesulfonyl-piperazine-2-carboxylic acid 4-trifluoromethyl-benzylamide] | > 1000 nM | > 1000 nM
6 | CC(=O)N1CCN(S(=O)(=O)c2ccc(Oc3ccc(Cl)cc3)cc2)C(C(=O)NCc2ccc(C(F)(F)F)cc2)C1 (stereo not drawn) [Example 25, 4-acetyl-1-[4-(4-chloro-phenoxy)-benzenesulfonyl]-piperazine-2-carboxylic acid 4-trifluoromethyl-benzylamide] | > 1000 nM | > 1000 nM
7 | CC(=O)N1CCN(S(=O)(=O)c2ccc(-c3ccc(Cl)cc3)cc2)C(C(=O)NCc2ccc(C(F)(F)F)cc2)C1 (stereo not drawn) [Example 26, 4-acetyl-1-(4′-chloro-biphenyl-4-sulfonyl)-piperazine-2-carboxylic acid 4-trifluoromethyl-benzylamide] | > 1000 nM | > 1000 nM
8 | CC(=O)N1CCN(S(=O)(=O)c2cc(C)cc(C)c2Oc2ccc(C#N)cc2)C(C(=O)NCc2ccc(C(F)(F)F)cc2)C1 (stereo not drawn) [Example 27, 4-acetyl-1-[2-(4-cyano-phenoxy)-3,5-dimethyl-benzenesulfonyl]-piperazine-2-carboxylic acid 4-trifluoromethyl-benzylamide] | > 1000 nM | > 1000 nM
9 | CC(=O)N1CCN(S(=O)(=O)c2ccc(-c3ccc(Cl)cc3)s2)C(C(=O)NCc2ccc(C(F)(F)F)cc2)C1 (stereo not drawn) [Example 28, 4-acetyl-1-[5-(4-chloro-phenyl)-thiophene-2-sulfonyl]-piperazine-2-carboxylic acid 4-trifluoromethyl-benzylamide] | > 1000 nM | > 1000 nM
10 | CC(=O)N1CCN(S(=O)(=O)c2cccc(Cl)c2)C(C(=O)NCc2ccc(C(F)(F)F)cc2)C1 (stereo not drawn) [Example 29, 4-acetyl-1-(3-chloro-benzenesulfonyl)-piperazine-2-carboxylic acid 4-trifluoromethyl-benzylamide] | > 1000 nM | > 1000 nM
11 | CC(=O)N1CCN(S(=O)(=O)c2ccc(C(C)(C)C)cc2)C(C(=O)NCc2ccc(C(F)(F)F)cc2)C1 (stereo not drawn) [Example 30, 4-acetyl-1-(4-tert-butyl-benzenesulfonyl)-piperazine-2-carboxylic acid 4-trifluoromethyl-benzylamide] | > 1000 nM | > 1000 nM
12 | CC(=O)c1ccc(S(=O)(=O)N2CCN(C(C)=O)CC2C(=O)NCc2ccc(C(F)(F)F)cc2)cc1 (stereo not drawn) [Example 31, 4-acetyl-1-(4-acetyl-benzenesulfonyl)-piperazine-2-carboxylic acid 4-trifluoromethyl-benzylamide] | > 1000 nM | > 1000 nM
13 | COC(=O)N1CCN(S(=O)(=O)c2ccc(C(C)C)cc2)C(C(=O)NCc2ccc(C(F)(F)F)cc2)C1 (stereo not drawn) [Example 32, 4-(4-isopropyl-benzenesulfonyl)-3-(4-trifluoromethyl-benzylcarbamoyl)-piperazine-1-carboxylic acid methyl ester] | > 1000 nM | > 1000 nM
14 | CC(=O)N1CCN(S(=O)(=O)c2ccc(C(C)C)cc2)C(C(=O)NCc2cccc(Cl)c2)C1 (stereo not drawn) [Example 33, 4-acetyl-1-(4-isopropyl-benzenesulfonyl)-piperazine-2-carboxylic acid 3-chloro-benzylamide] | > 1000 nM | > 1000 nM
15 | CC(=O)N1CCN(S(=O)(=O)c2ccc(C(C)C)cc2)C(C(=O)NCc2ccccc2Cl)C1 (stereo not drawn) [Example 34, 4-acetyl-1-(4-isopropyl-benzenesulfonyl)-piperazine-2-carboxylic acid 2-chloro-benzylamide] | > 1000 nM | > 1000 nM
16 | CC(=O)N1CCN(S(=O)(=O)c2ccc(C(C)C)cc2)C(C(=O)NCc2ccc(Cl)cc2)C1 (stereo not drawn) [Example 35, 4-acetyl-1-(4-isopropyl-benzenesulfonyl)-piperazine-2-carboxylic acid 4-chloro-benzylamide] | > 1000 nM | > 1000 nM
17 | CC(=O)N1CCN(S(=O)(=O)c2ccc(C(C)C)cc2)C(C(=O)NCc2ccc(-c3ccccc3)cc2)C1 (stereo not drawn) [Example 36, 4-acetyl-1-(4-isopropyl-benzenesulfonyl)-piperazine-2-carboxylic acid (biphenyl-4-ylmethyl)-amide] | > 1000 nM | 100 to 1000 nM
18 | CC(=O)N1CCN(S(=O)(=O)c2ccc(C(C)C)cc2)C(C(=O)NCc2ccc(N(C)C)cc2)C1 (stereo not drawn) [Example 37, 4-acetyl-1-(4-isopropyl-benzenesulfonyl)-piperazine-2-carboxylic acid 4-dimethylamino-benzylamide] | 100 to 1000 nM | 100 to 1000 nM
19 | CC(=O)N1CCN(S(=O)(=O)c2ccc(C(C)C)cc2)C(C(=O)NCc2ccc(S(N)(=O)=O)cc2)C1 (stereo not drawn) [Example 38, 4-acetyl-1-(4-isopropyl-benzenesulfonyl)-piperazine-2-carboxylic acid 4-sulfamoyl-benzylamide] | > 1000 nM | > 1000 nM
20 | CC(=O)Nc1ccc(S(=O)(=O)N2CCN(C(C)=O)CC2C(=O)NCc2ccc(C(F)(F)F)cc2)cc1 (stereo not drawn) [Example 39, 4-acetyl-1-(4-acetylamino-benzenesulfonyl)-piperazine-2-carboxylic acid 4-trifluoromethyl-benzylamide] | > 1000 nM | > 1000 nM
21 | CC(=O)N1CCN(S(=O)(=O)c2ccc([N+](=O)[O-])cc2)C(C(=O)NCc2ccc(C(F)(F)F)cc2)C1 (stereo not drawn) [Example 40, 4-acetyl-1-(4-nitro-benzenesulfonyl)-piperazine-2-carboxylic acid 4-trifluoromethyl-benzylamide] | > 1000 nM | > 1000 nM
